The text below walks through data of paper PMC10095950, “Development of Cell Permeable NanoBRET Probes for the Measurement of PLK1 Target Engagement in Live Cells” (Molecules, 2023).

The test system of assay [1] is a range of cancer cell lines. Also on record: method as in as in column Ref. of Table 1 ([5]-[8],[14],[19]-[21]). To be noted: ref as in Table 1 ([5]-[8],[14],[19]-[21]), read-out: Reported Cell Proliferation IC50; cited from earlier work.
The test system of another assay is PLK1. The note with it: ref as in Table 1 ([5],[6],[8],[14],[19],[20],[21]); read-out: Reported Enzyme Inhibition IC50 PLK1; cited from earlier work.
The target in another assay is T1, human PLK2 (NLuc-PLK2) (Homo sapiens, UniProt Q9NYY3).
T1 construct: ORFs corresponding to UniProt isoform 1 (PLK1: P53350-1, PLK2: Q9NYY3-1, and PLK3: Q9H4B4-1); host or cells: HEK293
As to the kind of experiment: PLK2 NanoBRET target engagement assay (NLuc-PLK2) in live HEK293 cells. Format: cell-based. The note with it: HEK293, probe 11 1.0 µM, 2 h; average of two technical replicates ±15%. As to the method:
(§1) HEK293 cells (ATCC) were cultured in DMEM (Gibco) + 10% FBS (Seradigm) with incubation in a humidified 37 °C/5% CO2 incubator. N- or C-terminal NLuc/PLK fusions were encoded in pFN31K expression vectors (Promega), including flexible Gly-Ser-Ser-Gly linkers between NLuc and ORFs corresponding to UniProt isoform 1 (PLK1: P53350-1, PLK2: Q9NYY3-1, and PLK3: Q9H4B4-1). Carrier DNA was encoded in pGEM-3Z vectors (Promega). For cellular BRET target engagement experiments, HEK293 cells were transfected with NLuc/PLK fusion constructs using FuGENE HD (Promega) according to the manufacturer’s protocol. Briefly, NLuc/PLK fusion constructs were diluted into Transfection Carrier DNA (Promega) at a mass ratio of 1:9 (mass/mass), after which FuGENE HD was added at a ratio of 1:3 (µg DNA: µL FuGENE HD). One part (vol) of FuGENE HD complexes thus formed was combined with 20 parts (vol) of HEK293 cells suspended at a density of 2 × 10^5 per mL, followed by incubation in a humidified 37 °C/5% CO2 incubator for 20 hr.
(§2) To test BRET probes 10 and 11 against PLK1, HEK293 adherent cells were incubated with either NLuc fused to the N-terminus of PLK1 (NLuc-PLK1) or the C-terminus of PLK1 (PLK1-NLuc) using 1 µM of the BRET probe, and mBRET units were measured. […] NLuc-PLK2 and NLuc-PLK3 were tested with both probes 10 and 11 using the same protocol.
Background: In BRET a luciferase serves as donor, and the signal depends on an acceptor being close.

Another assay addresses T2, human PLK3 (NLuc-PLK3) (Homo sapiens, UniProt Q9H4B4).
T2 construct: ORFs corresponding to UniProt isoform 1 (PLK1: P53350-1, PLK2: Q9NYY3-1, and PLK3: Q9H4B4-1); host or cells: HEK293
Nature of the assay: PLK3 NanoBRET target engagement assay (NLuc-PLK3) in live HEK293 cells. The note with it: HEK293, probe 11 1.0 µM, 2 h; average of two technical replicates ±15%. Format: cell-based. As to the method: as §1, §2

Another assay addresses T3, human PLK1 (NLuc-PLK1) (Homo sapiens, UniProt P53350).
T3 construct: plasmid DNAs encoding N- and C-terminal fusions of full-length PLK1 with NLuc; host or cells: HEK293
Nature of the assay: PLK1 NanoBRET target engagement assay (NLuc-PLK1, N-terminal fusion) in live HEK293 cells. Format: cell-based. As to the method:
as §1, with “Briefly, NLuc/PLK fusion constructs were diluted into Transfection Carrier DNA (Promega) at a mass ratio of 1:9 (mass/mass), after which FuGENE HD was added at a ratio of 1:3 (µg DNA: µL FuGENE HD).” left out
as §2
To estimate the half-maximal effective concentration (EC50) of probe 11 to PLK1 in cells, adherent HEK293 cells in a 96-well plate expressing the NLuc-PLK1 fusion protein were mixed with an increasing concentration of BRET probe 11. The resulting BRET ratio was fitted to the sigmoidal 4-parameter dose–response curve using Prism 9.0 (GraphPad, Boston MA, USA).

In a further assay the target is T4, PLK1 (PLK1-NLuc) (Homo sapiens, UniProt P53350).
T4 construct: plasmid DNAs encoding N- and C-terminal fusions of full-length PLK1 with NLuc; host or cells: HEK293
As to the kind of experiment: BRET probe evaluation with NLuc fused to the C-terminus of PLK1 (PLK1-NLuc) in HEK293 cells. Format: cell-based. To be noted: 1 µM probe, PLK1-NLuc (C-terminal fusion), adherent HEK293 cells. As to the method:
as §1
To test BRET probes 10 and 11 against PLK1, HEK293 adherent cells were incubated with either NLuc fused to the N-terminus of PLK1 (NLuc-PLK1) or the C-terminus of PLK1 (PLK1-NLuc) using 1 µM of the BRET probe, and mBRET units were measured. The combination with the highest mBRET units was selected for further processing. […]

pIC50, pKd: −log10 of the molar value. Read-outs that look alike come from different tables or passages of the source.

T2 sequence (Q9H4B4 whole entry, canonical isoform): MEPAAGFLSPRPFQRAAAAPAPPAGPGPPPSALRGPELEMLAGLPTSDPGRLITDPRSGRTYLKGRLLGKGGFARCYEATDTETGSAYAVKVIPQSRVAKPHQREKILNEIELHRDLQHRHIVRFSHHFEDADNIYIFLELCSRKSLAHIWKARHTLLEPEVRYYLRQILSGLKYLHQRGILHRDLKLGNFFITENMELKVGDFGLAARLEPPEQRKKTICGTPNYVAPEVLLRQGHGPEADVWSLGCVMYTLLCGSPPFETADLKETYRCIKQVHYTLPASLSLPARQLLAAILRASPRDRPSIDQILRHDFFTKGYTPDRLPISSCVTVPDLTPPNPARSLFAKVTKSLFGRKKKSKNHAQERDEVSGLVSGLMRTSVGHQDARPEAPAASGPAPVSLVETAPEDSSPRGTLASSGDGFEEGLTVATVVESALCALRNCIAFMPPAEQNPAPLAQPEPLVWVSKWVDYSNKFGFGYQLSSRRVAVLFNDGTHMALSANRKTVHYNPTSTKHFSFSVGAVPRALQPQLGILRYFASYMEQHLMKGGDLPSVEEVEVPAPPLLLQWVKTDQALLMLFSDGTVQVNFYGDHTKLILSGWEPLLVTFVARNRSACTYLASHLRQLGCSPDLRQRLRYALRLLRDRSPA
T3 sequence (P53350 whole entry, the tested form may be a part): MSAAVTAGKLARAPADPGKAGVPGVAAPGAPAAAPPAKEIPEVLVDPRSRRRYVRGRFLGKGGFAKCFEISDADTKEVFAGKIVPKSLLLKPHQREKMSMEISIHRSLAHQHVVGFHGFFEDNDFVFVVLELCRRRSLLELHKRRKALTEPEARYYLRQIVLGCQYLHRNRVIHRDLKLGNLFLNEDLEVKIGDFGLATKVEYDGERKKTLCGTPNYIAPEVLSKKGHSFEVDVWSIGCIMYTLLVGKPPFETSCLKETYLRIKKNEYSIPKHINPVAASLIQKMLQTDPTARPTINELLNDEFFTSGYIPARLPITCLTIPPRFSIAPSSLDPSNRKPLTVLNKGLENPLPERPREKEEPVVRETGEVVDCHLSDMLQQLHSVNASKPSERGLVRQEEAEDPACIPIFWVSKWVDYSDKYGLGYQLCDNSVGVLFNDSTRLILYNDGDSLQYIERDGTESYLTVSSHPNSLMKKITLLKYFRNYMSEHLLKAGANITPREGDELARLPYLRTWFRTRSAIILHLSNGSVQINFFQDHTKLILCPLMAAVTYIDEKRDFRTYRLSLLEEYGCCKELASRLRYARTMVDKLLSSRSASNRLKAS
T1 sequence (Q9NYY3 whole entry, canonical isoform): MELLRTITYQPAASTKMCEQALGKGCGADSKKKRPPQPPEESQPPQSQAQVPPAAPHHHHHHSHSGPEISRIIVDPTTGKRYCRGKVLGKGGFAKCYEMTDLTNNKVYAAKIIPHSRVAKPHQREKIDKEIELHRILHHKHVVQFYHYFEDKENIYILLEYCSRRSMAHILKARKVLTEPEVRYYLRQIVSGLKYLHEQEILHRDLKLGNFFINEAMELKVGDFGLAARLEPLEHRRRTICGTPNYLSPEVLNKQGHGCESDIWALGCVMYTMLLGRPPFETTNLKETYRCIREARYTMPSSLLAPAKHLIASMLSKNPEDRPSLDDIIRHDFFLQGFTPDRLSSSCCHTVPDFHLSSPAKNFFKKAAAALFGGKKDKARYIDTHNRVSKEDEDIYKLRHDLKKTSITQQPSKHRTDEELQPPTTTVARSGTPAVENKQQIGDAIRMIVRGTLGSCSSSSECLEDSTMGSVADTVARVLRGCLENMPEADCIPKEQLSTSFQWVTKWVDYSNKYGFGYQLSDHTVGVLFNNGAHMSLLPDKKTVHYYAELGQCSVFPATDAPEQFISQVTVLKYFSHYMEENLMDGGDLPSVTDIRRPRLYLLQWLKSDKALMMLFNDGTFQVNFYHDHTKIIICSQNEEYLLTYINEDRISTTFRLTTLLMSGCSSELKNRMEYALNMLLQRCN
T4 sequence (P53350 whole entry, the tested form may be a part): as the sequence (P53350 whole entry, the tested form may be a part) above

Turning to `C[C@@H](Oc1cc(-n2cnc3ccc(CN4CCN(C)CC4)cc32)sc1C(N)=O)c1ccccc1C(F)(F)F` [GSK461364], the pIC50 in assay [1] is 7.00 to 8.00.
In the case of `Cc1ncc(CCCN(C)C)cc1Nc1ncc2c(n1)-c1ccc(C(F)(F)F)cc1NC(=S)C2` [MLN0905], in the assay on PLK1, the pIC50 was 8.70.
`CN1CCN(c2ccc(OC(F)(F)F)c(Nc3ncc4c(n3)-c3c(c(C(N)=O)nn3CCO)CC4)c2)CC1` [Onvansertib]: the pIC50 in the assay on PLK1 is […]; in assay [1], 7.38.
Consider `COc1cc(C(=O)NC2CCN(C)CC2)ccc1Nc1ncc2c(n1)N(C1CCCC1)CC(F)(F)C(=O)N2C` [Ro3280], for which the pIC50 against human PLK2 (NLuc-PLK2) is 7.35; at human PLK3 (NLuc-PLK3), 6.74; in assay [1], 7.35 to 8.22.
As for `CCC1(F)CN(C2CCCC2)c2nc(Nc3ccc(C(=O)NC4CCN(C)CC4)cc3OC)ncc2N(C)C1=O` (stereo not drawn) [TPKI-26], the pIC50 was 7.19 against human PLK2 (NLuc-PLK2), 5.77 at human PLK3 (NLuc-PLK3) and 8.30 in assay [1].
For `CC[C@@H]1C(=O)N(C)c2cnc(Nc3ccc(C(=O)N[C@H]4CC[C@H](N5CCN(CC6CC6)CC5)CC4)cc3OC)nc2N1C(C)C` [Volasertib], the pIC50 was 7.74 on human PLK1 (NLuc-PLK1) (HEK293, probe 11 0.2 µM, 2 h, average of two technical replicates ±15%, read-out: NanoBRET Target Engagement IC50 PLK1); 7.64 on human PLK2 (NLuc-PLK2); 7.23 on human PLK3 (NLuc-PLK3); 9.06 in the assay with PLK1; 7.43 to 7.96 in assay [1].
On to `CC[C@@H]1C(=O)N(C)c2cnc(Nc3ccc(C(=O)NC4CCNCC4)cc3OC)nc2N1C(C)C` [compound 1, (R)-4-((7-ethyl-8-isopropyl-5-methyl-6-oxo-5,6,7,8-tetrahydropteridin-2-yl)amino)-3-methoxy-N-(piperidin-4-yl)benzamide], for which the pIC50 at human PLK1 (NLuc-PLK1) (Probe 11 Conc. 0.1 μM, NLuc-PLK1, ADH format, read-out: apparent IC50) is 6.69; on human PLK1 (NLuc-PLK1) (Probe 11 Conc. 0.2 μM, NLuc-PLK1, ADH format, read-out: apparent IC50), 6.64; on human PLK1 (NLuc-PLK1) (Probe 11 Conc. 0.4 μM, NLuc-PLK1, ADH format, read-out: apparent IC50) it was 6.61; at human PLK1 (NLuc-PLK1) (Probe 11 Conc. 0.6 μM, NLuc-PLK1, ADH format, read-out: apparent IC50), 6.55; on human PLK1 (NLuc-PLK1) (Probe 11 Conc. 0.8 μM, NLuc-PLK1, ADH format, read-out: apparent IC50), 6.54; on human PLK1 (NLuc-PLK1) (Probe 11 Conc. 1 μM, NLuc-PLK1, ADH format, read-out: apparent IC50), 6.50. Besides, at human PLK1 (NLuc-PLK1) (linearized Cheng–Prusoff analysis, y-intercept of IC50 vs probe 11 concentration, live HEK293 cells, read-out: apparent KD for intracellular target engagement of PLK1), the pKd – broadly, the negative decadic logarithm of the Kd, by convention in mol/L – is 6.92.
Take `CC[C@@H]1C(=O)N(C)c2cnc(Nc3ccc(C(=O)NC4CCN(C(=O)CCc5ccc6n5[B-](F)(F)[N+]5=C(c7ccc[nH]7)C=CC5=C6)CC4)cc3OC)nc2N1C(C)C` [probe 10, (R)-N-(1-(3-(5,5-difluoro-7-(1H-pyrrol-2-yl)-5H-5^λ,6^λ-dipyrrolo[1,2-c:2’,1’-f][1-3]diazaborinin-3-yl)propanoyl)piperidin-4-yl)-4-((7-ethyl-8-isopropyl-5-methyl-6-oxo-5,6,7,8-tetrahydropteridin-2-yl)amino)-3-methoxybenzamide]: the BRET ratio is ~ 39 on human PLK1 (NLuc-PLK1) (1 µM probe, NLuc-PLK1, adherent HEK293 cells) and ~ 15 on PLK1 (PLK1-NLuc).
